pEC50: −log10 of the molar value.
Key:
[1] = Unbound fraction in plasma; type: in vitro ADME, rat
hKv7.2/7.3 = hKv7.2/7.3 (Homo sapiens, UniProt O43525+O43526); test: Off-target Kv7.2/7.3 activation, fluorescence-based ion flux assay (FDSS); type: cell-based; details: up to 30 μM
Experimental: The activity of selected compound examples at three key ion channel off targets was measured, namely Nav1.1, Kv1.1/1.2 and Kv7.2/7.3.
Effects of selected examples on activation of the voltage gated heteromeric potassium channel Kv7.2/7.3 was tested in a fluorescence-based ion flux assay at concentrations up to 30 μM.

hKv3.1b = target: T1, hKv3.1b (Homo sapiens, UniProt P48547); test: Automated patch clamp (QPatch-16x) on HEK-293 cells stably expressing hKv3.1b; type: cell-based; details: for hKv3.1 (Qpatch) ECΔ30% increase: concentration increasing current by 30% at the −10 mV step; for hKv3.1 (Qpatch) ECΔ30% increase / hKv3.1 (Qpatch) ECΔ5 mV: automated patch clamp; for ECdelta5 mV: concentration needed to shift the activation threshold 5 mV; for hKv3.1 (Qpatch) ECΔ5 mV: concentration that shifts activation threshold by 5 mV in hyperpolarized direction; for Threshold Shift: maximum absolute hyperpolarizing shift of activation threshold at tested concentrations 0.37-30 μM
T1 construct: expressed in transfected cells
T1 sequence (P48547 1-585 isoform P48547-2): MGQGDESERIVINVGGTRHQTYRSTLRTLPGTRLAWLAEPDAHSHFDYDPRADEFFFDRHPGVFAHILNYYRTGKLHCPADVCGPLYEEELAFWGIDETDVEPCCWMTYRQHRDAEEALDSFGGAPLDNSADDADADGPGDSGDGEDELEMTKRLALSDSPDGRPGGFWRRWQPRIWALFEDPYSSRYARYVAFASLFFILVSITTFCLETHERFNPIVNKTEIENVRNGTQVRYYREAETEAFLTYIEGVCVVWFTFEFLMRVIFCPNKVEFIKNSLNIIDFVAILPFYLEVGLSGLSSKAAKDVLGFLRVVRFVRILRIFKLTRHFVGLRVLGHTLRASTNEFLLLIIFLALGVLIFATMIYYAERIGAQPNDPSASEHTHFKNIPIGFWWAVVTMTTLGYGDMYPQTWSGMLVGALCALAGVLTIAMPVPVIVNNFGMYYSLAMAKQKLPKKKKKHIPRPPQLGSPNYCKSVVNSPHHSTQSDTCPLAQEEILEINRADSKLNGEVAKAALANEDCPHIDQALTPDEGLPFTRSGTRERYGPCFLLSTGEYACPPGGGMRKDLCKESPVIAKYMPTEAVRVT
How it was run: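 Whole-cell automated patch clamp, extracellular pH 7.4, 4 mM Na2ATP intracellular; holding −80 mV, 200 ms steps −70 to +10 mV. Five ascending concentrations (0.37–30 μM) per cell, ~3 min each, 0.33% DMSO vehicle. Activation threshold (5% of vehicle peak at 10 mV) shift fitted sigmoidally; ECdelta5 mV read from curve.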

Row | Structure (SMILES) | fraction unbound ([1]; rat table footnote) | pEC50 (hKv7.2/7.3) | hKv3.1 (Qpatch) ECΔ30% increase (hKv3.1b) | ECdelta5 mV (hKv3.1b) | hKv3.1 (Qpatch) ECΔ5 mV (hKv3.1b) | Threshold Shift (hKv3.1b) | fraction unbound ([1]; rat PK table footnote)
1 | Cc1ccc(S(=O)(=O)n2ccc(C(=O)NCc3ncco3)c2)cc1 [Compound 86, 1-(4-methylbenzene-1-sulfonyl)-N-[(1,3-oxazol-2-yl)methyl]-1H-pyrrole-3-carboxamide] | 0.12 | < 4.52 | 2.9 µM | 2800 nM | 2.7 µM | 17 mV | –
2 | Cc1cnc(CNC(=O)c2ccn(S(=O)(=O)c3ccc(F)cc3C)c2)cn1 [Compound 90, 1-(4-fluoro-2-methylbenzene-1-sulfonyl)-N-[(5-methylpyrazin-2-yl)methyl]-1H-pyrrole-3-carboxamide] | – | < 4.52 | 1.6 µM | 1300 nM | 1.2 µM | 32 mV | 0.1
